Data from publication PMC9481570, “A small molecule antagonist of SMN disrupts the interaction between SMN and RNAP II” (Nature Communications, 2022).

System: GEMIN1
Experiment: AP-MS chemical proteomics, GEMIN1
Type: binding, human
Details: biotin-Cmpd 1 pulldown, competition with 200 μM compound 1 relative to DMSO, U2OS lysate
Experimental: The samples for AP-MS were prepared following pulldown procedure as previously described with minor modifications. Briefly, U2OS cells were lysed in RIPA buffer and the cell lysate was equally divided into two groups: (1) DMSO group (control group): the cell lysate was incubated with 20 μM biotin-labeled compound 1; (2) Cpmd 1 group (sample group): the cell lysate was incubated with 20 μM biotin-labeled compound 1 and 200 μM free compound 1. Each group contains three biological replicates. They were incubated overnight at 4 °C, then 30 μL streptavidin beads (Thermo Fisher, 20353) was added and incubated at 4 °C for 1 h. The beads were then washed with RIPA buffer for 3 times, 10 min/time. […]
Samples were analyzed by nanoLC-MS/MS (nanoRSLC, Thermo Fisher) using an Aurora series (Ion Opticks) reversed phase HPLC column (25 cm length × 75 µm inner diameter) and directly injected to an Orbitrap Eclipse (Thermo Fisher) using a 120 min gradient (mobile phase A = 0.1% formic acid, mobile phase B = 99.9% acetonitrile with 0.1% formic acid; hold 2% B for 5 min, 2–6% B in 0.1 min, 6–25% in 100 min, 25–50% in 15 min) at a flow rate of 350 nL/min. Eluted peptide ions were analyzed using a data-dependent acquisition (DDA) method with resolution settings of 120,000 and 15,000 (at m/z 200) for MS1 and MS2 scans, respectively. […]

Cn1c2c(c(=N)c3c1CCC3)CCC2 [Compound 1, 4-methyl-2,3,4,5,6,7-hexahydrodicyclopenta[b,e]pyridin-8(1H)-imine]
log2 FC (Cmpd 1/DMSO), GEMIN1: −6.9
